Results as given in US5393775A, “Benzopyran compounds” (Adir et Compagnie, priority 1992, dated 1995).

Columns and labels:
[1] = tested on: lipoxygenase of human polynuclear cells (LTB4); test: inhibition of the synthesis of LTB4 (lipoxygenase) in human polynuclear cells activated by A23187; assay type: cell-based; conditions: for inhibition at 10 µM: at 10^-5 M; for IC50: read-out: INHIBITION OF THE SYNTHESIS OF LTB4, CON[…] BY 50% (IC50 in M), read-out: INHIBITION OF THE SYNTHESIS OF LTB4, CONCENTRATION INHIBITING SYNTHESIS BY 50% (IC50 in M)
Experimental: The inhibitory activity of the compounds of formula (I) used according to the invention on the synthesis of eicosanoids is measured on washed human polynuclear cells, in the presence or in the absence of the compound to be tested, after activation of these cells by calcium (calcium ionophore A23187).
The production of the main eicosanoid, resulting from lipoxygenase, produced by human polynuclear cells: leukotriene B4 (LTB4), is measured by a radioimmunological test.

[2] = tested on: rat brain homogenates (peroxidation induced by the Fe^2+ /ascorbate system); test: lipid peroxidation induced by Fe^2+/ascorbate on rat brain homogenates; assay type: biochemical; conditions: at 10^-5 M, 60 minutes at 37° C.
Experimental: (§1) The action of the compounds of the invention, which are capable of trapping .OH radicals, was studied, on the one hand, on the spontaneous peroxidation of lipids and, on the other hand, on the peroxidation induced by the Fe^2+ /ascorbate (10 μm/250 μm) system on rat brain homogenates.
(§2) During the measurement of the spontaneous lipid peroxidation, the rat brain homogenates are placed in the presence or in the absence of the compounds to be tested for 60 minutes at 37° C. The reaction is halted at 0° C. and the quantitative determination of malondialdehyde is carried out using thiobarbituric acid by the method of Yagi, K., (1976), Biochem. Med., 15, 212-216. Lipid peroxidation is determined by the substances reacting with thiobarbituric acid expressed in nanomoles of malondialdehyde.
During the measurement of the induced lipid peroxidation, the methodology is identical to the above with the exception of the addition to the homogenate of the radical inductive system: Fe^2+ /ascorbate. The reference substances are probucol and vitamin E.
(§3) The concentrations of the tested compounds which inhibit by 50 % the peroxidation of the substrate or the antioxidizing activity of the compounds of the invention at a concentration of 10^-5 M are calculated.

[3] = tested on: rat brain homogenates (spontaneous peroxidation of lipids); test: spontaneous lipid peroxidation on rat brain homogenates; assay type: biochemical; conditions: at 10^-5 M, 60 minutes at 37° C.
Experimental: as §1, §2, §3

Row | SMILES | inhibition at 10 µM [1] [%] | IC50 [1] [nM] | INHIBITION OF THE PEROXIDATION WITH RESPECT TO THE CONTROL, INDUCED PEROXIDATION [2] | INHIBITION OF THE PEROXIDATION WITH RESPECT TO THE CONTROL, SPONTANEOUS PEROXIDATION [3]
1 | Cc1c(C)c2c(c(C)c1O)CCC(C)(C(=S)N1CCN(c3ccccc3)CC1)O2 (stereo not drawn) [Example 84, 1-[(3,4-dihydro-6-hydroxy-2,5,7,8-tetramethyl-2H-1-benzopyran-2-yl)thiocarbonyl]-4-phenylpiperezine] | > 99 | 300 | – | –
2 | COc1ccc(CN2CCN(C(=S)C3(C)CCc4c(C)c(O)c(C)c(C)c4O3)CC2)c(OC)c1OC (stereo not drawn) [Example 94, 1-[(3,4-dihydro-6-hydroxy-2,5,7,8-tetramethyl-2H-1-benzopyran-2-yl)thiocarbonyl]-4-(2,3,4-trimethoxybenzyl)piperazine] | > 99 | 300 | – | –
3 | Cc1c(C)c2c(c(C)c1O)CCC(C)(C(=S)N1CCN(c3ccc(Cl)cc3)CC1)O2 (stereo not drawn) [Example 92, 1-[(3,4-dihydro-6-hydroxy-2,5,7,8-tetramethyl-2H-1-benzopyran-2-yl)thiocarbonyl]-4-(4-chlorophenyl)piperazine] | > 99 | 200 | – | –
4 | Cc1c(C)c2c(c(C)c1O)CCC(C)(C(=S)N1CCN(c3ccccn3)CC1)O2 (stereo not drawn) [Example 86, 1-[(3,4-dihydro-6-hydroxy-2,5,7,8-tetramethyl-2H-1-benzopyran-2-yl)thiocarbonyl]-4-(2-pyridyl)piperazine] | > 99 | 200 | – | –
5 | Cc1cccc(C)c1NC(=S)C1(C)CCc2c(C)c(O)c(C)c(C)c2O1 (stereo not drawn) [Example 26, N-(2,6-dimethylphenyl)-6-hydroxy-3,4-dihydro-2,5,7,8-tetramethyl-2H-1-benzopyran-2-thiocarboxamide] | > 99 | 500 | 100 | 99
6 | Cc1c(C)c2c(c(C)c1O)CCC(C)(C(=S)N1CCN(c3ccc(F)cc3)CC1)O2 (stereo not drawn) [Example 88, 1-[(3,4-dihydro-6-hydroxy-2,5,7,8-tetramethyl-2H-1-benzopyran-2-yl)thiocarbonyl]-4-(4-fluorophenyl)piperazine] | > 99 | 100 | – | –
7 | Cc1c(C)c2c(c(C)c1O)CCC(C)(C(=S)Nc1ccccc1)O2 (stereo not drawn) [Example 2, N-phenyl-6-hydroxy-3,4-dihydro-2,5,7,8-tetramethyl-2H-1-benzopyran-2-thiocarboxamide] | > 99 | 300 | 100 | 100
8 | Cc1cc(C)nc(NC(=S)C2(C)CCc3c(C)c(O)c(C)c(C)c3O2)c1 (stereo not drawn) [Example 6, N-(4,6-dimethylpyrid-2-yl)-6-hydroxy-3,4-dihydro-2,5,7,8-tetramethyl-2H-1-benzopyran-2-thiocarboxamide] | > 99 | 600 | – | –
9 | COc1cc(NC(=S)C2(C)CCc3c(C)c(O)c(C)c(C)c3O2)cc(OC)c1OC (stereo not drawn) [Example 8, N-(3,4,5-trimethoxyphenyl)-6-hydroxy-3,4-dihydro-2,5,7,8-tetramethyl-2H-1-benzopyran-2-thiocarboxamide] | > 99 | – | – | –
10 | Cc1cc(C)c(NC(=S)C2(C)CCc3c(C)c(O)c(C)c(C)c3O2)cc1C (stereo not drawn) [Example 4, N-(2,4,5-trimethylphenyl)-6-hydroxy-3,4-dihydro-2,5,7,8-tetramethyl-2H-1-benzopyran-2-thiocarboxamide] | > 99 | 500 | 100 | 98
11 | Cc1c(C)c2c(c(C)c1O)CCC(C)(C(=S)N1CCN(C(O)(c3ccccc3)c3ccccc3)CC1)O2 (stereo not drawn) [Example 98, 1-[(3,4-dihydro-6-hydroxy-2,5,7,8-tetramethyl-2H-1-benzopyran-2-yl)thiocarbonyl]-4-(1-hydroxy-1,1-diphenylmethyl)piperazine] | > 99 | 1300 | – | –
